According to US20060222628A1, “Gallium complexes of 3-hydroxy-4-pyrones to treat infection by intracellular prokaryotes and DNA viruses” (priority 1999, published 2006):

Test system: CMV
Assay: Clinical evaluation for prevention of CMV disease in HIV patients: CMV
Type: in vivo, human
Excerpt: In this example, prevention of CMV disease rather than its treatment will be studied. Chemo-prevention by antivirals is preferred, rather than with immune stimulating agents such as interferons, because interferons require regular administration by injection. Foscarnet is an antiviral only for injection, but it is studied for comparison with oral antivirals. […] In addition to the methods used in Example 5 for evaluating the HIV disease, some of the methods employed in the following reference are used in the evaluation: Monkemuller et al. (2000), “Esophageal ulcer caused by cytomegalovirus: resolution during combination antiretroviral therapy for acquired immunodeficiency syndrome,” South Med. J. 93(8):8 18-20. Patients are treated once per day with gelatin capsules containing gallium maltolate. The population of patients with CMV (almost universal, seropositive or culture positive patients) and HIV infection are first divided into two subpopulations groups based on CD4+ counts (above 350/mm^3 and below 350/mm^3). The subpopulations are randomly and blindly divided into two groups each randomly subdivided into subgroups for a total of sixteen approximately equal subgroups that receive either 0 (placebo), 250, 500, or 750 mg/day gallium maltolate for about six months. All subgroups receive the identical regimen of non-gallium antiretroviral therapy as described in Example 5 (a HAART regime). The commonly used nucleoside analog for CMV is ganciclovir, with foscavir used in cases where ganciclovir is ineffective, and the combination used to treat refractory CMV retinitis and other conditions. Foscarnet must be infused slowly to avoid adverse reactions. […] Patients are monitored for HIV disease precisely as described in Example 5. Patients are also medically monitored for CMV disease, including testing and examination for medical symptoms of CMV disease, such as CMV retinitis, throughout the study. […]

## Cc1occc(=O)c1[O-].Cc1occc(=O)c1[O-].Cc1occc(=O)c1[O-].[Ga+3] [gallium maltolate, tris(3-hydroxy-2-methyl-4H-pyran-4-onato)gallium]
HIV patients on HAART, with foscarnet or ganciclovir
  Efficacy in preventing CMV disease in combination: effective in combination with either foscarnet or ganciclovir
Gallium plus ganciclovir versus placebo plus ganciclovir
  Prevention of CMV disease with only oral agents: adequate and effecting better results than placebo plus ganciclovir
With foscarnet or ganciclovir
  Synergy in preventing CMV disease: synergistic with both
